Experimental data: the NIST ThermoML archive (doi:10.1016/j.jct.2013.06.009)
Numbers after ± are expanded uncertainties.

Assay: mn = molality of the nth substance listed, in mol/kg
Conditions: 101.33 kPa, Liquid; for viscosity: Capillary tube (Ostwald / Ubbelohde) method; for mass density: Vibrating tube method

CO/N=C(\C(=O)N[C@@H]1C(=O)N2C(C(=O)O)=C(C[N+]3(C)CCCC3)CS[C@H]12)c1csc(N)n1.Cl.[Cl-] [cefepime dihydrochloride] + O
Conditions | mass density [kg/m3] | viscosity [mPa·s]
278.15 K, m1 = 0.01005 | 1002 ± 0.21 | 1.544 ± 0.032
278.15 K, m1 = 0.02017 | 1004.01 ± 0.21 | 1.57 ± 0.033
278.15 K, m1 = 0.0304 | 1006.02 ± 0.21 | 1.597 ± 0.033
278.15 K, m1 = 0.05103 | 1009.98 ± 0.21 | 1.649 ± 0.034
278.15 K, m1 = 0.07222 | 1013.97 ± 0.21 | 1.705 ± 0.036
278.15 K, m1 = 0.09333 | 1017.86 ± 0.21 | 1.766 ± 0.037
278.15 K, m1 = 0.1154 | 1021.84 ± 0.21 | 1.824 ± 0.038
278.15 K, m1 = 0.1343 | 1025.19 ± 0.21 | 1.88 ± 0.039
278.15 K, m1 = 0.1521 | 1028.29 ± 0.21 | 1.937 ± 0.041
283.15 K, m1 = 0.01005 | 1001.73 ± 0.21 | 1.324 ± 0.028
283.15 K, m1 = 0.02017 | 1003.73 ± 0.21 | 1.348 ± 0.028
283.15 K, m1 = 0.0304 | 1005.73 ± 0.21 | 1.371 ± 0.029
283.15 K, m1 = 0.05103 | 1009.67 ± 0.21 | 1.416 ± 0.03
283.15 K, m1 = 0.07222 | 1013.62 ± 0.21 | 1.463 ± 0.031
283.15 K, m1 = 0.09333 | 1017.47 ± 0.21 | 1.517 ± 0.032
283.15 K, m1 = 0.1154 | 1021.4 ± 0.21 | 1.566 ± 0.033
283.15 K, m1 = 0.1343 | 1024.71 ± 0.21 | 1.613 ± 0.034
283.15 K, m1 = 0.1521 | 1027.79 ± 0.21 | 1.663 ± 0.035
288.15 K, m1 = 0.01005 | 1001.11 ± 0.21 | 1.148 ± 0.024
288.15 K, m1 = 0.02017 | 1003.1 ± 0.21 | 1.17 ± 0.025
288.15 K, m1 = 0.0304 | 1005.08 ± 0.21 | 1.19 ± 0.025
288.15 K, m1 = 0.05103 | 1008.98 ± 0.21 | 1.228 ± 0.026
288.15 K, m1 = 0.07222 | 1012.89 ± 0.21 | 1.269 ± 0.027
288.15 K, m1 = 0.09333 | 1016.7 ± 0.21 | 1.316 ± 0.028
288.15 K, m1 = 0.1154 | 1020.61 ± 0.21 | 1.359 ± 0.028
288.15 K, m1 = 0.1343 | 1023.89 ± 0.21 | 1.4 ± 0.029
288.15 K, m1 = 0.1521 | 1026.93 ± 0.21 | 1.443 ± 0.03
293.15 K, m1 = 0.01005 | 1000.2 ± 0.21 | 1.013 ± 0.021
293.15 K, m1 = 0.02017 | 1002.18 ± 0.21 | 1.031 ± 0.022
293.15 K, m1 = 0.0304 | 1004.15 ± 0.21 | 1.049 ± 0.022
293.15 K, m1 = 0.05103 | 1008.03 ± 0.21 | 1.082 ± 0.023
293.15 K, m1 = 0.07222 | 1011.91 ± 0.21 | 1.12 ± 0.023
293.15 K, m1 = 0.09333 | 1015.7 ± 0.21 | 1.161 ± 0.024
293.15 K, m1 = 0.1154 | 1019.57 ± 0.21 | 1.199 ± 0.025
293.15 K, m1 = 0.1343 | 1022.82 ± 0.21 | 1.235 ± 0.026
293.15 K, m1 = 0.1521 | 1025.83 ± 0.21 | 1.273 ± 0.027
298.15 K, m1 = 0.01005 | 999.04 ± 0.21 | 0.899 ± 0.019
298.15 K, m1 = 0.02017 | 1001.01 ± 0.21 | 0.9159 ± 0.019
298.15 K, m1 = 0.0304 | 1002.97 ± 0.21 | 0.9314 ± 0.019
298.15 K, m1 = 0.05103 | 1006.84 ± 0.21 | 0.9593 ± 0.02
298.15 K, m1 = 0.07222 | 1010.7 ± 0.21 | 0.9939 ± 0.021
298.15 K, m1 = 0.09333 | 1014.46 ± 0.21 | 1.029 ± 0.022
298.15 K, m1 = 0.1154 | 1018.29 ± 0.21 | 1.065 ± 0.022
298.15 K, m1 = 0.1343 | 1021.51 ± 0.21 | 1.096 ± 0.023
298.15 K, m1 = 0.1521 | 1024.5 ± 0.21 | 1.13 ± 0.024
303.15 K, m1 = 0.01005 | 997.63 ± 0.21 | 0.8046 ± 0.017
303.15 K, m1 = 0.02017 | 999.59 ± 0.21 | 0.8192 ± 0.017
303.15 K, m1 = 0.0304 | 1001.53 ± 0.21 | 0.8325 ± 0.017
303.15 K, m1 = 0.05103 | 1005.38 ± 0.21 | 0.8581 ± 0.018
303.15 K, m1 = 0.07222 | 1009.21 ± 0.21 | 0.8888 ± 0.019
303.15 K, m1 = 0.09333 | 1012.95 ± 0.21 | 0.9175 ± 0.019
303.15 K, m1 = 0.1154 | 1016.75 ± 0.21 | 0.9513 ± 0.02
303.15 K, m1 = 0.1343 | 1019.94 ± 0.21 | 0.9813 ± 0.021
303.15 K, m1 = 0.1521 | 1022.9 ± 0.21 | 1.01 ± 0.021
308.15 K, m1 = 0.01005 | 996.01 ± 0.21 | 0.7235 ± 0.015
308.15 K, m1 = 0.02017 | 997.96 ± 0.21 | 0.7352 ± 0.015
308.15 K, m1 = 0.0304 | 999.9 ± 0.21 | 0.7465 ± 0.016
308.15 K, m1 = 0.05103 | 1003.71 ± 0.21 | 0.7718 ± 0.016
308.15 K, m1 = 0.07222 | 1007.53 ± 0.21 | 0.7974 ± 0.017
308.15 K, m1 = 0.09333 | 1011.24 ± 0.21 | 0.8261 ± 0.017
308.15 K, m1 = 0.1154 | 1015.02 ± 0.21 | 0.8553 ± 0.018
308.15 K, m1 = 0.1343 | 1018.18 ± 0.21 | 0.881 ± 0.018
308.15 K, m1 = 0.1521 | 1021.12 ± 0.21 | 0.904 ± 0.019
313.15 K, m1 = 0.01005 | 994.18 ± 0.21 | 0.6561 ± 0.014
313.15 K, m1 = 0.02017 | 996.12 ± 0.21 | 0.6652 ± 0.014
313.15 K, m1 = 0.0304 | 998.04 ± 0.21 | 0.6753 ± 0.014
313.15 K, m1 = 0.05103 | 1001.85 ± 0.21 | 0.6976 ± 0.015
313.15 K, m1 = 0.07222 | 1005.64 ± 0.21 | 0.7193 ± 0.015
313.15 K, m1 = 0.09333 | 1009.33 ± 0.21 | 0.7448 ± 0.016
313.15 K, m1 = 0.1154 | 1013.07 ± 0.21 | 0.7705 ± 0.016
313.15 K, m1 = 0.1343 | 1016.22 ± 0.21 | 0.7947 ± 0.017
313.15 K, m1 = 0.1521 | 1019.14 ± 0.21 | 0.8162 ± 0.017
